From ChEMBL document CHEMBL1143967, “Targeted inhibition of hedgehog signaling by cyclopamine prodrugs for advanced prostate cancer” (Bioorg Med Chem, 2008)
Active and inactive are the calls of the source. The calls are words filed in the database; no cut-off is given here. *1 amine or outer side, *2 acyl side, *3 side chain or, on linkers, in order; H or OH if unused. Where a SMILES comes first, the peptide text is derived from it. The star is where a group is joined. X1 = CC1=C2C[C@H]3[C@@H](CC=C4C[C@@H](O)CC[C@@]43C)[C@@H]2CC[C@]12O[C@@H]1C[C@H](C)CN(*)[C@H]1[C@H]2C; Morpholide = C1CN(*)CCO1; CO = O=C([*:1])[*:2]

Tests used:
[1] = test system: DU-145; test: Growth inhibition of human DU145 cells at 5 uM after 96 hrs; type: functional, cell-based
[2] = test system: DU-145; test: Growth inhibition of human DU145 cells at 10 uM after 96 hrs; type: functional, cell-based
[3] = Hydrolysis of prodrug assessed as half life in presence PSA; type: ADME
[4] = test system: DU-145; test: Increase in growth inhibition of human DU145 cells in presence of PSA after 96 hrs; type: functional, cell-based

Row | t1/2 [3] [h] | SMILES | Activity [1] | Activity [2] | Activity [4]
1 |  | CC1=C2C[C@H]3[C@@H](CC=C4C[C@@H](O)CC[C@@]43C)[C@@H]2CC[C@]12O[C@@H]1C[C@H](C)CN[C@H]1[C@H]2C | Active | Active | 
2 | 22 | CC1=C2C[C@H]3[C@@H](CC=C4C[C@@H](O)CC[C@@]43C)[C@@H]2CC[C@]12O[C@@H]1C[C@H](C)CN(C(=O)[C@H](CCC(N)=O)NC(=O)[C@H](CC(C)C)NC(=O)[C@H](CCCCN)NC(=O)[C@H](CO)NC(=O)[C@H](CO)NC(=O)[C@H](Cc3c[nH]cn3)NC(=O)N3CCOCC3)[C@H]1[C@H]2C ({Morpholide-CO}-HSSKLQ-X1) |  |  | Active
3 | 3.2 | CC1=C2C[C@H]3[C@@H](CC=C4C[C@@H](O)CC[C@@]43C)[C@@H]2CC[C@]12O[C@@H]1C[C@H](C)CN(C(=O)[C@H](CCC(N)=O)NC(=O)[C@H](Cc3ccc(O)cc3)NC(=O)[C@H](CCCCN)NC(=O)[C@H](CO)NC(=O)[C@H](CO)NC(=O)N3CCOCC3)[C@H]1[C@H]2C ({Morpholide-CO}-SSKYQ-X1) |  |  | 
